Source: US20160051560A1, “TREATMENTS INVOLVING ESLICARBAZEPINE OR ESLICARBAZEPINE ACETATE” (BIAL - PORTELA & Cª, S.A., priority 2013, published 2016)

How the values were obtained:
[1] = test system: patients with acute manic (including mixed) episode, bipolar I disorder; assay: Study BIA-2093-203: 3-week double-blind, randomised, placebo-controlled, dose-titration study in acute mania; assay type: in vivo, human; details: for YMRS score absolute change from V2 (1 Day) to V7 (21 Days), Mean ± SD / YMRS score absolute change from V2 (1 Day) to V7 (21 Days), Median (range): ITT
Experimental: Two 3-week multicentre, double-blind, randomised, placebo-controlled studies in acute mania (study BIA-2093-203: dose titrated by response, eslicarbazepine acetate (ESL) 600-1800 mg or 800-2400 mg, once-daily; study BIA-2093-204: fixed doses of 600, 1200 and 1800 mg, once-daily) were followed by a recurrence prevention study consisting of a 2-week open-label period (900 mg, once-daily) continued by a double-blind, parallel-group, fixed dose (300, 900 and 1800 mg, once-daily) period for a minimum of 6 months. The primary endpoint was change in Young Mania Rating Scale (YMRS) in studies BIA-2093-203 and BIA-2093-204, and the proportion of no worsening patients in the Clinical Global Impressions-Bipolar Version (CGI-BP) in study BIA-2093-205.
Study BIA-2093-203 (EudraCT No 2005-002131-27) followed a multicentre, double-blind, randomised, parallel-group, placebo-controlled, dose-titration design.
This study was conducted at 23 centres across Europe. Patients were randomised (3:3:2) to one of the following treatment groups: (1) ESL starting with 800 mg once daily (QD) and up-titrated in 800 mg steps until 2400 mg QD (maximum dose) according to clinical response, (2) ESL starting with 600 mg QD and up-titrated in 600 mg steps until 1800 mg QD (maximum dose) according to clinical response, and (3) Placebo QD. Patients were followed for up to 3 weeks. The study schedule consisted of a screening visit (V1), randomisation visit (V2, Day 1), and subsequent visits to evaluate clinical response (V3, Day 4; V4, Day 7; V5, Day 10; V6, Day 14 and V7, Day 21). In patients showing no improvement of symptoms, the dose of study medication was increased every 3 days until the maximum doses were reached. […] At the end of the 3-week treatment period, patients who responded to treatment had the option of entering the recurrence prevention study (Study BIA-2093-205).
Studies BIA-2093-203 and BIA-2093-204 enrolled patients with ages ≧18 years, currently displaying an acute manic (including mixed) episode and with a documented diagnosis of bipolar I disorder according to the DSM-IV criteria (2). Eligible patients should have a Young Mania Rating Scale (YMRS) total score ≧20, with symptoms of the current manic episode starting within two weeks prior to randomization. Patients were excluded if they had history of schizophrenia or schizoaffective disorder, psychotic features or rapid cycling. Patients were also excluded if they were treated with carbamazepine, oxcarbazepine or a depot-neuroleptic. Previous treatment with ESL or history of unresponsiveness, intolerance or hypersensitivity to other dibenzazepine compounds (carbamazepine, oxcarbazepine or licarbazepine) also constituted criteria for exclusion. Patients with clinical relevant risk of harm to self or others and history of substance abuse were also excluded. Women were excluded if they were pregnant or breast-feeding, or if of childbearing potential they were unable to use double-barrier contraception.
The following validated instruments were used: YMRS (20), the Clinical Global Impressions-Bipolar Version (CGI-BP) scale (21) and the Montgomery-Åsberg Depression Rating Scale (MADRS) (22). The YMRS score is the sum of 11 scoring items, ranging from 0 to 60 points; higher scores indicate higher mania symptomatology (20). The CGI-BP scale measures severity and treatment-related improvement in mania, depression and overall illness categories. It comprises 3 scales: severity of illness (1—normal to 7—very severely ill, in which 3—mildly ill was used as cut-off value for statistical analysis), change from preceding phase and worst phase (1—very much improved to 7—very much worse, and 8—not applicable) (21). The MADRS score is calculated as the sum of the 10 scoring items, ranging from 0 to 60 points: higher scores indicate higher depression symptomatology (22). […]

[2] = leading to a better tolerability profile; cited from earlier work
[3] = ESL 600 mg (600-1800 mg QD titrated), n = 63
[4] = ESL 800 mg (800-2400 mg QD titrated), n = 57
[5] = ESL 800 mg, n = 57, only study 203

CC(=O)O[C@H]1Cc2ccccc2N(C(N)=O)c2ccccc21 [ESL, (S)-10-acetoxy-10,11-dihydro-5H-dibenz[b,f]azepine-5-carboxamide]
MADRS scores under treatment with ESL as compared to placebo ([1]; ANCOVA showed no significant difference between the treatment groups at visit 7): apparent improvement | absolute difference between ESL treatment group and placebo for the YMRS total score ([1]; ESL 600 mg): 2.2 | YMRS score absolute change from V2 (1 Day) to V7 (21 Days), Mean ± SD [1, 3]: −12.2 ± 7.9 | YMRS score absolute change from V2 (1 Day) to V7 (21 Days), Median (range) [1, 3]: −14.0 (−25.0, 14.0) | CGI-BP score changes for mania and overall bipolar illness compared to placebo ([1]; ESL 600 mg group, from worst phase only): significant improvement | absolute difference between ESL treatment group and placebo for the YMRS total score ([1]; ESL 800 mg): 4.0 | YMRS score absolute change from V2 (1 Day) to V7 (21 Days), Mean ± SD [1, 4]: −14.1 ± 8.9 | YMRS score absolute change from V2 (1 Day) to V7 (21 Days), Median (range) [1, 4]: −16.0 (−33.0, 22.0) | CGI-BP score changes for mania and overall bipolar illness compared to placebo ([1]; ESL 800 mg group, from preceding and worst phase): significant improvement | proportion of patients in V7 classified as normal (CGI-BP severity of illness scale) vs placebo ([1]; ESL 800 mg group, mania and overall bipolar illness): significant differences | Any Adverse Events [1, 5]: 29 (50.9) Number (%) of patients | Diarrhoea [1, 5]: 2 (3.5) Number (%) of patients | Dizziness [1, 5]: 5 (8.8) Number (%) of patients | Headache [1, 5]: 5 (8.8) Number (%) of patients | Nausea [1, 5]: 4 (7.0) Number (%) of patients | Paraesthesia oral [1, 5]: 0 (0.0) Number (%) of patients | Somnolence [1, 5]: 1 (1.8) Number (%) of patients | Vomiting [1, 5]: 2 (3.5) Number (%) of patients | reduction in YMRS total score as compared with placebo, statistical significance ([1]; ESL 600-1800 mg and ESL 800-2400 mg groups): None of the treatment groups showed a reduction in YMRS total score as compared with placebo that was statistically significant | proportion of patients in full remission (YMRS score <12) at V7 compared to the placebo group ([1]; ESL 800-2400 mg group): significantly higher proportion of patients were in full remission | response rate (≧50% improvement or <12 points in the YMRS score) ([1]; ESL 800-2400 mg group): 66.7% | reduction in YMRS total score ([1]; ESL 800-2400 mg vs placebo −10.3 (p=0.0523)): −14.2 | production of toxic metabolites compared to carbamazepine [2]: reduced production of toxic metabolites
